The test system of the assay is HIV-1 single-round infectious reporter virus. Kind of assay: Single-round infectious HIV-1 luciferase reporter virus infection of HeLa CD4 cells (antiviral EC50). The format is cell-based. The conditions noted are these: Human immunodeficiency virus 1, HeLa, read-out: EC50 Group from Table 3. The protocol: • Virus production—Human embryonic Kidney cell line, 293T, was propagated in Dulbecco's Modified Eagle Medium (Invitrogen, Carlsbad, Calif.) containing 10% fetal Bovine serum (FBS, Sigma, St. Louis, Mo.). • Virus infection—Human epithelial cell line, HeLa, expressing the HIV-1 receptor CD4 was propagated in Dulbecco's Modified Eagle Medium (Invitrogen, Carlsbad, Calif.) containing 10% fetal Bovine serum (FBS, Sigma, St. Louis, Mo.) and supplemented with 0.2 mg/mL Geneticin (Invitrogen, Carlsbad, Calif.). Virus-Single-round infectious reporter virus was produced by co-transfecting human embryonic Kidney 293 cells with an HIV-1 envelope DNA expression vector and a proviral cDNA containing an envelope deletion mutation and the luciferase reporter gene inserted in place of HIV-1 nef sequences (Chen et al, Ref. 41). Transfections were performed using lipofectAMINE PLUS reagent as described by the manufacturer (Invitrogen, Carlsbad, Calif.). Experiment • 1. HeLa CD4 cells were plated in 96 well plates at a cell density of 1×10^4 cells per well in 100 μl Dulbecco's Modified Eagle Medium containing 10% fetal Bovine serum and incubated overnight. • 2. Compound was added in a 2 μl dimethylsulfoxide solution, so that the final assay concentration would be ≦10 μM. • 3. 100 μl of single-round infectious reporter virus in Dulbecco's Modified Eagle Medium was then added to the plated cells and compound at an approximate multiplicity of infection (MOI) of 0.01, resulting in a final volume of 200 μl per well. • 4. Virally-infected cells were incubated at 37 degrees Celsius, in a CO2 incubator, and harvested 72 h after infection. • 5. Viral infection was monitored by measuring luciferase expression from viral DNA in the infected cells using a luciferase reporter gene assay kit, as described by the manufacturer (Roche Molecular Biochemicals, Indianapolis, Ind.). Infected cell supernatants were removed and 50 μl of lysis buffer was added per well. After 15 minutes, 50 μl of freshly-reconstituted luciferase assay reagent was added per well. Luciferase activity was then quantified by measuring luminescence using a Wallac microbeta scintillation counter. • 6. The percent inhibition for each compound was calculated by quantifying the level of luciferase expression in cells infected in the presence of each compound as a percentage of that observed for cells infected in the absence of compound and subtracting such a determined value from 100. • 7. An EC50 provides a method for comparing the antiviral potency of the compounds of this disclosure. The effective concentration for fifty percent inhibition (EC50) was calculated with the Microsoft Excel Xlfit curve fitting software. For each compound, curves were generated from percent inhibition calculated at 10 different concentrations by using a four parameter logistic model (model 205). Table 3 is the key for the data in Table 4. Results

Molecules are shown by their SMILES. Structures can show the parent of a compound that is named as a salt.

As usually defined, the EC50 is the midpoint of the concentration-response curve. On to `COc1cnc(-c2cc(C(=O)NCCOCCO)[nH]n2)c2[nH]cc(C(=O)C(=O)N3CCN(c4nnnn4-c4ccccc4)CC3)c12` [B-9, N-(2-(2-hydroxyethoxy)ethyl)-3-(4-methoxy-3-(2-oxo-2-(4-(1-phenyl-1H-tetrazol-5-yl)piperazin-1-yl)acetyl)-1H-pyrrolo[2,3-c]pyridin-7-yl)-1H-pyrazole-5-carboxamide.TFA], for which the concentration for a half-maximal effect (EC50) was < 500 nM.
The figure for `COc1cnc(-n2cnc(C)n2)c2[nH]cc(C(=O)C(=O)N3CCN(c4nnnn4-c4cccnn4)CC3)c12` [E-12d] is < 500 nM.
On to `COc1ccc(-n2nnnc2N2CCN(C(=O)C(=O)c3c[nH]c4c(-n5ccnn5)ncc(F)c34)CC2)cc1` [E-10], for which the half-maximal effective concentration (EC50) is > 500 nM.
In the case of `COc1nc(N2CCN(C(=O)C(=O)c3c[nH]c4c(-n5cnc(C)n5)ncc(OC)c34)CC2)n(-c2ccccc2)n1` [G-29b], the EC50 was < 500 nM.
On to `COc1cnc(-n2cnc(C)n2)c2[nH]cc(C(=O)C(=O)N3CCN(c4ncccc4-c4ccccc4)CC3)c12` [G-3a], for which the EC50 was < 500 nM.
As to `Cn1ncc(N2CCN(C(=O)C(=O)c3c[nH]c4c(-n5ccnn5)ncc(F)c34)CC2)c1-c1ccccc1` [G-13a], the EC50 is < 500 nM.
On to `CN(C)C(=O)Nc1ncc(F)c2c(C(=O)C(=O)N3CCN(c4nnnn4-c4ccccc4)CC3)c[nH]c12` [B-19, 3-(4-fluoro-3-(2-oxo-2-(4-(1-phenyl-1H-tetrazol-5-yl)piperazin-1-yl)acetyl)-1H-pyrrolo[2,3-c]pyridin-7-yl)-1,1-dimethylurea], for which the EC50 is < 500 nM.
On to `COc1cccc(-n2nnnc2N2CCN(C(=O)C(=O)c3c[nH]c4c(-n5ccnn5)ncc(F)c34)CC2)c1` [E-9], for which the concentration giving a half-maximal response (EC50) was < 500 nM.
For `CCOc1cccnc1N1CCN(C(=O)C(=O)c2c[nH]c3c(-n4ccnn4)ncc(F)c23)CC1` [A-62] the value was < 500 nM; for `CN(C)CCN(C)C(=O)c1cc(-c2ncc(F)c3c(C(=O)C(=O)N4CCN(c5nnnn5-c5ccccc5)CC4)c[nH]c23)n[nH]1` [B-35], < 500 nM; for `COc1cnc(-c2cc(CNCCO)[nH]n2)c2[nH]cc(C(=O)C(=O)N3CCN(c4nnnn4-c4ccccc4)CC3)c12` [B-24, 1-(7-(5-((2-hydroxyethylamino)methyl)-1H-pyrazol-3-yl)-4-methoxy-1H-pyrrolo[2,3-c]pyridin-3-yl)-2-(4-(1-phenyl-1H-tetrazol-5-yl)piperazin-1-yl)ethane-1,2-dione TFA], < 500 nM.
`COc1cnc(-c2cccnc2Cl)c2[nH]cc(C(=O)C(=O)N3CCN(c4nnnn4-c4ccccn4)CC3)c12` [H-4]: the 50% effective concentration (EC50) is < 500 nM.
Regarding `O=C(C(=O)N1CCC(C2=NCCN2c2ccccc2)CC1)c1c[nH]c2c(-n3ccnn3)ncc(F)c12` [G-17a], the EC50 was > 500 nM.
On to `COc1cnc(-c2cc(C(=O)NCCN3CCNCC3)[nH]n2)c2[nH]cc(C(=O)C(=O)N3CCN(c4nnnn4-c4ccccc4)CC3)c12` [B-14, 3-(4-methoxy-3-(2-oxo-2-(4-(1-phenyl-1H-tetrazol-5-yl)piperazin-1-yl)acetyl)-1H-pyrrolo[2,3-c]pyridin-7-yl)-N-(2-(piperazin-1-yl)ethyl)-1H-pyrazole-5-carboxamide.TFA], for which the concentration giving a half-maximal response (EC50) was < 500 nM.
In the case of `COc1cnc(-c2cc(CNCCN(C)C)[nH]n2)c2[nH]cc(C(=O)C(=O)N3CCN(c4nnnn4-c4ccccc4)CC3)c12` [B-25, 1-(7-(5-((2-(dimethylamino)ethylamino)methyl)-1H-pyrazol-3-yl)-4-methoxy-1H-pyrrolo[2,3-c]pyridin-3-yl)-2-(4-(1-phenyl-1H-tetrazol-5-yl)piperazin-1-yl)ethane-1,2-dione TFA], the concentration giving a half-maximal response (EC50) is < 500 nM.
The figure for `COc1cnc(-n2cnc(C)n2)c2[nH]cc(C(=O)C(=O)N3CCN(c4snnc4-c4ccccc4)C[C@H]3C)c12` [D-14] is < 500 nM; for `COc1cnc(-n2ccnn2)c2[nH]cc(C(=O)C(=O)N3CCN(c4nnnn4-c4ccccn4)CC3)c12` [A-59] it is < 500 nM.
On to `O=C(NCCN1CCOCC1)c1cc(-c2ncc(F)c3c(C(=O)C(=O)N4CCN(c5c[nH]nc5-c5ccccc5)CC4)c[nH]c23)n[nH]1` [B-54], for which the 50% effective concentration (EC50) was < 500 nM.
As to `O=C(NCCO)c1cc(-c2ncc(F)c3c(C(=O)C(=O)N4CCN(c5nnnn5-c5ccccc5)CC4)c[nH]c23)n[nH]1` [B-37], the EC50 was < 500 nM.
As for `COc1cnc(-n2cnc(C)n2)c2[nH]cc(C(=O)C(=O)N3CCN(c4nnnn4-c4ccccc4)C[C@@H]3C)c12` [A-31], the half-maximal effective concentration (EC50) is < 500 nM.
In the case of `COc1cnc(-c2cc[nH]n2)c2[nH]cc(C(=O)C(=O)N3CCN(c4nnnn4-c4ccccn4)CC3)c12` [B-72], the half-maximal effective concentration (EC50) is < 500 nM.
In the case of `O=C(C(=O)N1CCN(c2nc(-c3ccccc3)ns2)CC1)c1c[nH]c2c(-n3ccnn3)ncc(F)c12` [A-28], the EC50 is < 500 nM.
For `CCOc1ccccc1N1CCN(C(=O)C(=O)c2c[nH]c3c(-n4ccnn4)ncc(F)c23)CC1` [A-50] the value was < 500 nM.
In the case of `O=C(C(=O)N1CCN(c2cccc(C3CCCCC3)c2)CC1)c1c[nH]c2c(-n3ccnn3)ncc(F)c12` [A-41], the concentration giving a half-maximal response (EC50) is > 500 nM.
Take `Cn1ccc(-c2ncc(F)c3c(C(=O)C(=O)N4CCN(c5nnnn5-c5ccccc5)CC4)c[nH]c23)n1` [B-29]: the concentration giving a half-maximal response (EC50) is < 500 nM.
For `Nc1ncc(F)c2c(C(=O)C(=O)N3CCN(c4nnnn4-c4ccccc4)CC3)c[nH]c12` [B-17, 1-(7-amino-4-fluoro-1H-pyrrolo[2,3-c]pyridin-3-yl)-2-(4-(1-phenyl-1H-tetrazol-5-yl)piperazin-1-yl)ethane-1,2-dione] the value was < 500 nM; for `CSc1nc(N2CCN(C(=O)C(=O)c3c[nH]c4c(-n5ccnn5)ncc(F)c34)CC2)n(-c2ccccc2)n1` [G-26a], < 500 nM.
For the compound `O=C(C(=O)N1CCN(c2nnnn2-c2ccccc2)CC1)c1c[nH]c2c(-c3cc[nH]n3)ncc(F)c12` [B-28], the EC50 is < 500 nM.
For the compound `COc1cnc(-n2cnc(C)n2)c2[nH]cc(C(=O)C(=O)N3CCN(c4ccnn4-c4ccccc4)CC3)c12` [G-9a], the EC50 was < 500 nM.
Consider `COc1cnc(C(=O)NCCO)c2[nH]cc(C(=O)C(=O)N3CCN(c4nnnn4-c4ccccc4)CC3)c12` [B-64], for which the EC50 is < 500 nM.
For `Cc1ccnn1-c1ncc(F)c2c(C(=O)C(=O)N3CCN(c4nnnn4-c4ccccc4)CC3)c[nH]c12` [B-3, 1-(4-fluoro-7-(5-methyl-1H-pyrazol-1-yl)-1H-pyrrolo[2,3-c]pyridin-3-yl)-2-(4-(1-phenyl-1H-tetrazol-5-yl)piperazin-1-yl)ethane-1,2-dione], the 50% effective concentration (EC50) was < 500 nM.
Take `COc1cnc(-c2cccnc2F)c2[nH]cc(C(=O)C(=O)N3CCN(c4nnnn4-c4ccccn4)CC3)c12` [H-2]: the half-maximal effective concentration (EC50) is < 500 nM.
As for `O=C(C(=O)N1CCN(c2nc3ccccc3n2-c2ccccc2)CC1)c1c[nH]c2c(-n3ccnn3)ncc(F)c12` [A-37], the EC50 is < 500 nM.
For `COc1cnc(-c2ccc(N3CCN(C(=O)OCC(C)C)CC3)cc2)c2[nH]cc(C(=O)C(=O)N3CCN(c4nnnn4-c4ccccn4)CC3)c12` [B-84] the value was < 500 nM.
`CN(C)c1cc(N2CCN(C(=O)C(=O)c3c[nH]c4c(-n5ccnn5)ncc(F)c34)CC2)c(-c2ccccc2)nn1` [G-14a]: the EC50 is < 500 nM.
For `COc1cnc(-n2cnc(C)n2)c2[nH]cc(C(=O)C(=O)N3CCN(c4cn(CCN(C)C)nc4-c4ccccc4)CC3)c12` [G-6a] the value was < 500 nM; for `O=C(C(=O)N1CCN(c2nncn2-c2ccccc2)CC1)c1c[nH]c2c(-n3ccnn3)ncc(O)c12` [A-43], < 500 nM.
